Activity calls are given as the source filed them.
Tests used:
[1] = molecular target: T1, Sentrin-specific protease 6 (Homo sapiens, UniProt Q9GZR1); assay type: functional;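 also: Luminescence-based dose-response confirmatory assay of SENP6 inhibition, following up an ultra-high-throughput screen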
T1 sequence (Q9GZR1 whole entry): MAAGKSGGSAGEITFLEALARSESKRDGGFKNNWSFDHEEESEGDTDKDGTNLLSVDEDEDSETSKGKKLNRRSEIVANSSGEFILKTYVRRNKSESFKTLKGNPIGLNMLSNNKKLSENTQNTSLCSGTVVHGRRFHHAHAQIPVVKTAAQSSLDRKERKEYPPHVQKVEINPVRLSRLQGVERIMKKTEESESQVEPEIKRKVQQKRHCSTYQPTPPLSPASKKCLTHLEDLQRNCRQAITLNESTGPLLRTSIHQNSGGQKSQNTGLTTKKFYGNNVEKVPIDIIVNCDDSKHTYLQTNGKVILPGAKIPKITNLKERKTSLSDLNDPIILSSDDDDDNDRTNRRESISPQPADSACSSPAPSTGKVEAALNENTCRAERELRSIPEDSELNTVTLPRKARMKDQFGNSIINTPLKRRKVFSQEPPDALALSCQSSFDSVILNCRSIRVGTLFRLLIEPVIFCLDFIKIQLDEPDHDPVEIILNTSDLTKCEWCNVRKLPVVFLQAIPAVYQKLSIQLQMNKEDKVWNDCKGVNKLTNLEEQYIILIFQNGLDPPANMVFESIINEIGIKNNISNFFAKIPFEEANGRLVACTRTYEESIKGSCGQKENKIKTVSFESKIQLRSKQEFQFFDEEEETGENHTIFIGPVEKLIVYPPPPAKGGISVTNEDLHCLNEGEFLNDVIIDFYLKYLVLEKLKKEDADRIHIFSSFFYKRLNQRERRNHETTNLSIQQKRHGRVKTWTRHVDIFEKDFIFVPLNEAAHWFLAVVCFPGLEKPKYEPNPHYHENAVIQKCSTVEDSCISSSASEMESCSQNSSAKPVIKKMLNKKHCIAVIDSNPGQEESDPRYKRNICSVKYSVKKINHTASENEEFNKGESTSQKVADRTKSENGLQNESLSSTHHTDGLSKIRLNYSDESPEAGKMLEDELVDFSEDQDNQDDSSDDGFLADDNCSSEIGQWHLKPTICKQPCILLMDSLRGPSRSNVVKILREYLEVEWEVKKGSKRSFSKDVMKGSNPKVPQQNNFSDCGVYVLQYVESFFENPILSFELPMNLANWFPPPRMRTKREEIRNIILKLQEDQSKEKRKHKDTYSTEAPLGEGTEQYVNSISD

[2] = molecular target: T2, Histone-lysine N-methyltransferase NSD2 (Homo sapiens, UniProt O96028); assay type: biochemical
T2 sequence (O96028 whole entry): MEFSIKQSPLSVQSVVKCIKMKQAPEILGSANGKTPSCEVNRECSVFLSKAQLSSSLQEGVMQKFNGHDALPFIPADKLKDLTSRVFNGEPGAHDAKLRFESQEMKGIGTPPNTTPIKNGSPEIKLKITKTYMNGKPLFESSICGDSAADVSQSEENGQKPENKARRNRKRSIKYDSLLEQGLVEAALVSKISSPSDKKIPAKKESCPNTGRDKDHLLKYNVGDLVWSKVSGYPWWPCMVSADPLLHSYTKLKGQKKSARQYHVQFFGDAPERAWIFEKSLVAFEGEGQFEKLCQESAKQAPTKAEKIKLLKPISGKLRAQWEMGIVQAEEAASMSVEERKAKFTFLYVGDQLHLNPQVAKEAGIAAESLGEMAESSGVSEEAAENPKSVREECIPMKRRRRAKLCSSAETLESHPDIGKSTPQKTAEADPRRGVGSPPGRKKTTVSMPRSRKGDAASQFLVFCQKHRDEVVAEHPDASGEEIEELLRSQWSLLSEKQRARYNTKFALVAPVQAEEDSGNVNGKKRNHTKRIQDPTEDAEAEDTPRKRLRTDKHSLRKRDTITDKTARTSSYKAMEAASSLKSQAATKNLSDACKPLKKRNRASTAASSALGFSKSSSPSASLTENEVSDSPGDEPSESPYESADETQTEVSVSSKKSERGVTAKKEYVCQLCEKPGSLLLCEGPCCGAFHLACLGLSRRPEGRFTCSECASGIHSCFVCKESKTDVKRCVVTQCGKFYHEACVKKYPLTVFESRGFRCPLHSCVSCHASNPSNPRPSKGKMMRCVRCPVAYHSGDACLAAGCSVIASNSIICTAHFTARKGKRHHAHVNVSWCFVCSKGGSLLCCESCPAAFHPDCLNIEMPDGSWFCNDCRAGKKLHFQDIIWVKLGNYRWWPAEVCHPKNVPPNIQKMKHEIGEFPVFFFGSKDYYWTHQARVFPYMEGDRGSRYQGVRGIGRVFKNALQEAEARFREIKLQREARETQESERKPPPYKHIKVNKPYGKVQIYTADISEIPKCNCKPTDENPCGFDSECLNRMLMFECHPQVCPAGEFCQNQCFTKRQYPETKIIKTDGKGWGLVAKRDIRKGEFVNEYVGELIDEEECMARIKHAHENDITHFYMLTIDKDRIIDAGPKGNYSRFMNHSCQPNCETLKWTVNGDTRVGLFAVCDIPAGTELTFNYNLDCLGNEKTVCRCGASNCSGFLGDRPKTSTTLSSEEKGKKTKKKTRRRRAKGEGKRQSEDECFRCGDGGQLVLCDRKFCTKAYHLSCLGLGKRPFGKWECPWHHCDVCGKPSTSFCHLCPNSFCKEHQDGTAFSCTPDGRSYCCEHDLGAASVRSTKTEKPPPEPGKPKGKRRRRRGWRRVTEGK

AC50 [2] | Structure (SMILES) | IC50 [1]
12.5 µM (active) | O=C(COC(=O)c1ccc([N+](=O)[O-])s1)Nc1ncc(C(F)(F)F)cc1Cl | 5.68 µM (active)
3.39 µM (active) | O=C(NC1(O)C(=O)c2ccccc2C1=O)c1ccc(C(F)(F)F)cc1 | 2.66 µM (active)
– | CCN(c1ccccc1)c1cc2ccccc2c(=O)[nH]1 | 2.21 µM (active)

Structure (SMILES) | AC50 [2] | IC50 [1]
O=C(NC1(O)C(=O)c2ccccc2C1=O)c1c(Cl)cccc1Cl | 3.16 µM (active) | 3.53 µM (active)

Source: ChEMBL document CHEMBL1201862, “PubChem BioAssay data set” (2004)
